Experimental data reported in the supplement of paper PMC10920090.

How the values were obtained:
MDA-MB-231 [1] = assay: drug sensitivity score (DSS), cytotoxicity CellTox Green; higher = more cytotoxic; extreme values may be limits of the assay; conditions: 72 h
MDA-MB-231 [2] = assay: drug sensitivity score (DSS), cell viability CellTiter-Glo; higher = more sensitive; extreme values may be limits of the assay; conditions: 72 h
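Wherever drug sensitivity score (DSS), cytotoxicity CellTox Green is given: DSS summarises each dose–response curve by combining IC50, EC50, maximal inhibition and efficacy across drug concentrations.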

Compound	drug sensitivity score (MDA-MB-231 [1]; shRNA: shPPFIA1_1)	drug sensitivity score (MDA-MB-231 [1]; shRNA: shScramble)	drug sensitivity score (MDA-MB-231 [2]; shRNA: shPPFIA1_1)	drug sensitivity score (MDA-MB-231 [2]; shRNA: shScramble)
CC(C)(C)C[C@@H]1N[C@@H](C(=O)N[C@H]2CC[C@H](O)CC2)[C@H](c2cccc(Cl)c2F)[C@]12C(=O)Nc1cc(Cl)ccc12	0 DSS	0.7 DSS	0 DSS	0 DSS
CC(C)Oc1ccc(C(=O)N[C@H](CNC(=O)CN(C)C)Cc2ccc(-c3cn4cccc([C@H](C)O)c4n3)cc2)cc1Cl	10.3 DSS	6.2 DSS	3.5 DSS	13.6 DSS
CCNC(=O)C[C@@H]1N=C(c2ccc(Cl)cc2)c2cc(OC)ccc2-n2c(C)nnc21	0 DSS	0 DSS	0 DSS	6.2 DSS
CCn1c(-c2nonc2N)nc2c(C#CC(C)(C)O)ncc(OC[C@H]3CCCNC3)c21	0 DSS	0 DSS	0 DSS	0.2 DSS
CN(c1ncccc1CNc1nc(Nc2ccc3c(c2)CC(=O)N3)ncc1C(F)(F)F)S(C)(=O)=O	2.5 DSS	1.8 DSS	0.5 DSS	5.8 DSS
CNC(=O)c1ccccc1Nc1nc(Nc2ccc3c(c2OC)CCC[C@H](N2CCN(CCO)CC2)C3)ncc1Cl	8.9 DSS	0 DSS	4 DSS	6.1 DSS
CNc1ncc2cc(-c3cc(NC(=O)NCCC(C)(C)C)c(F)cc3C)c(C)nc2n1	21.9 DSS	19.4 DSS	0.6 DSS	14.8 DSS
COCC(=O)NC/C=C/c1ccc2ncnc(Nc3ccc(Oc4ccc(C)nc4)c(C)c3)c2c1	2.2 DSS	0 DSS	0 DSS	0.3 DSS
COc1cc2ncnc(Oc3cccc(NC(=O)Nc4cc(C(C)(C)C(F)(F)F)on4)c3)c2cc1OC	4 DSS	7.8 DSS	0 DSS	7.7 DSS
COc1ccc(Cn2ccc3ccc(C(=O)NO)cc32)cc1	10.5 DSS	0 DSS	0 DSS	0 DSS
CS(=O)(=O)N1CCc2c(-c3cnc(N)nc3)nc(N3CCOCC3)nc21	0 DSS	0 DSS	0 DSS	7.7 DSS
C[C@@H]1CN(CC(=O)Nc2ccc3c(c2)Cc2cccc(-c4cc(=O)cc(N5CCOCC5)o4)c2S3)C[C@H](C)O1	0.2 DSS	0 DSS	0 DSS	3.6 DSS
C[C@H]1Oc2cc(cnc2N)-c2c(nn(C)c2C#N)CN(C)C(=O)c2ccc(F)cc21	0 DSS	0 DSS	0 DSS	0 DSS
Cc1ccc2nc(CN(CCN(Cc3nc4ccc(C)cc4[nH]3)Cc3nc4ccc(C)cc4[nH]3)Cc3nc4ccc(C)cc4[nH]3)[nH]c2c1	6.8 DSS	1.9 DSS	0.6 DSS	2.6 DSS
Cc1cccc(CC(=O)N2CCc3c2ccc(-c2cn(C)c4ncnc(N)c24)c3F)n1	15 DSS	0 DSS	0 DSS	0.3 DSS
Cc1ncc(Cl)cc1NCc1ccc(C(=O)N[C@@H](CC2CCCC2)C(=O)NC2CC2)s1	0 DSS	0 DSS	0 DSS	0 DSS
Cc1nn(C)c(COc2ccc(N3CCN(S(=O)(=O)N(C)C)CC3)cc2)c1-c1cccc2c(CCCOc3cccc4ccccc34)c(C(=O)O)n(CCN3CCOCC3)c12	2.4 DSS	7.1 DSS	13.3 DSS	4.2 DSS
Cn1cc(-c2ccc3nnc(C(F)(F)c4ccc5ncccc5c4)n3n2)cn1	0 DSS	0 DSS	0 DSS	6.9 DSS
NCC(=O)Nc1ccc(-n2nc(C(F)(F)F)cc2-c2ccc3c(ccc4ccccc43)c2)cc1	8 DSS	7.3 DSS	5 DSS	8.7 DSS
NC[C@@](O)(c1ccc(Cl)cc1)c1ccc(-c2cn[nH]c2)cc1	7.8 DSS	7.6 DSS	3 DSS	6 DSS
O=C(NC[C@H](O)CN1CCc2ccccc2C1)c1cc(NC2COC2)ncn1	0 DSS	0 DSS	0.5 DSS	1.8 DSS
O=C(O)c1ccc(CN2CCC(CN[C@@H]3C[C@H]3c3ccccc3)CC2)cc1	0 DSS	0 DSS	0 DSS	0 DSS
O=C1NC(=O)/C(=C/c2ccc3nccc(-c4ccncc4)c3c2)S1	0 DSS	0 DSS	0 DSS	4.3 DSS
O=c1[nH]c(C2CCCN2)nc2c1oc1ccc(Cl)cc12 (stereo not given)	0 DSS	0 DSS	0 DSS	0 DSS
OCCn1cc(-c2cnc3nnn(Cc4ccc5ncccc5c4)c3n2)cn1	0 DSS	0 DSS	0.9 DSS	0 DSS

Compound	drug sensitivity score (MDA-MB-231 [1]; shRNA: shPPFIA1_1)	drug sensitivity score (MDA-MB-231 [1]; shRNA: shScramble)	drug sensitivity score (MDA-MB-231 [2]; shRNA: shPPFIA1_1)	drug sensitivity score (MDA-MB-231 [2]; shRNA: shScramble)
COc1ccc(C[C@H](NC(=O)[C@H](C)NC(=O)CN2CCOCC2)C(=O)N[C@@H](Cc2ccccc2)C(=O)C2(C)CO2)cc1 (stereo in doubt) [ONX-0914]	19.1 DSS	18.6 DSS	17.1 DSS	18.1 DSS
Cn1cc(C[C@@H](N)C(=O)O)c2ccccc21 [1-methyl-D-tryptophan]	0 DSS	0 DSS	0 DSS	0.9 DSS
COc1cc2c(cc1O)CC[C@@H]1[C@@H]2CC[C@]2(C)[C@@H](O)CC[C@@H]12 [2-methoxyestradiol]	0 DSS	0.3 DSS	0.7 DSS	2.9 DSS
CC/C(=C(\c1ccc(O)cc1)c1ccc(OCCN(C)C)cc1)c1ccccc1 [4-hydroxytamoxifen]	2.2 DSS	3.3 DSS	2.7 DSS	4.8 DSS
Nc1ncnc2c1nc(N)n2[C@@H]1O[C@H](CO)[C@@H](O)[C@H]1O [8-amino-adenosine]	12.2 DSS	13.8 DSS	18.1 DSS	22.8 DSS
Nc1ncnc2c1nc(Cl)n2[C@@H]1O[C@H](CO)[C@@H](O)[C@H]1O [8-chloro-adenosine]	0.9 DSS	0 DSS	1.3 DSS	10.6 DSS
CCCCC/C=C/C=C1/C(=O)C=C[C@@H]1C/C=C\CCCC(=O)O [15D-PGJ2]	0 DSS	0 DSS	0 DSS	0 DSS
COc1cc(O)c2c(c1)/C=C/C[C@H](O)[C@H](O)C(=O)/C=C\C[C@H](C)OC2=O [(5Z)-7-Oxozeaenol]	0.4 DSS	2.7 DSS	0 DSS	2.1 DSS
COc1ccc(S(=O)(=O)Nc2cccnc2Nc2ccc(O)cc2)cc1 [ABT-751]	2.1 DSS	0.1 DSS	0 DSS	4.5 DSS
Cc1ccccc1C(C(=O)NC1CCCCC1)N(C(=O)Cn1ccnc1C)c1cccc(F)c1 (stereo not given) [AGI-5198]	0 DSS	0 DSS	0 DSS	0 DSS
O=C(Nc1cccc(C(F)(F)F)c1)Nc1cc(S(=O)(=O)NC2CC2)ccc1-c1ccsc1 [AGI-6780]	0.5 DSS	0 DSS	0 DSS	0 DSS
COc1ccc2c(OCc3nnc4ccc(-c5ccccc5)nn34)ccnc2c1 [AMG-208]	0 DSS	0 DSS	1.9 DSS	8.6 DSS
CC(C)[C@@H](CS(=O)(=O)C(C)C)N1C(=O)[C@@](C)(CC(=O)O)C[C@H](c2cccc(Cl)c2)[C@H]1c1ccc(Cl)cc1 [AMG-232]	12.7 DSS	0 DSS	0 DSS	0 DSS
Cc1csc(-c2nnc(Nc3ccc(Oc4ncccc4-c4ccnc(N)n4)cc3)c3ccccc23)c1 [AMG-900]	0 DSS	0 DSS	0 DSS	0.3 DSS
CC1CCC(n2c3cnccc3c3cnc(Nc4ccc5c(n4)CCN(C(=O)CO)C5)nc32)CC1 (stereo not given) [AMG-925]	0 DSS	0 DSS	0 DSS	0 DSS
COCC1(CO)C(=O)C2CCN1CC2 (stereo not given) [APR-246]	0 DSS	0 DSS	1.3 DSS	0 DSS
CC(C)[C@H](C(=O)Nc1ccc(C(=O)NO)cc1)c1ccccc1 [AR-42]	12.6 DSS	7.5 DSS	9.3 DSS	9.5 DSS
CNC(=O)c1ccc(N2C(=S)N(c3cnc(C#N)c(C(F)(F)F)c3)C(=O)C23CCC3)cc1F [ARN 509]	0 DSS	0 DSS	0 DSS	0.4 DSS
COc1cc(N2CCC(N3CCN(C)CC3)CC2)ccc1Nc1ncnc(Nc2ccccc2S(=O)(=O)C(C)C)n1 [ASP3026]	0 DSS	0 DSS	0.3 DSS	3.7 DSS
O=C(NC1CCNCC1)c1n[nH]cc1NC(=O)c1c(Cl)cccc1Cl [AT7519]	8.6 DSS	5.3 DSS	5.6 DSS	12.7 DSS
O=C(Nc1c[nH]nc1-c1nc2ccc(CN3CCOCC3)cc2[nH]1)NC1CC1 [AT9283]	0.2 DSS	0.8 DSS	0 DSS	0.5 DSS
CC[C@H](CC#N)OC(=O)N[C@@H](C)c1cccc(NC(=O)Nc2ccc(-c3cnco3)c(OC)c2)c1 [AVN944]	0 DSS	0 DSS	0 DSS	5.4 DSS
COc1cc(N2CCN(C)CC2)ccc1Nc1nccc(-c2cn(C)c3cnccc23)n1 [AZ191]	0 DSS	2.9 DSS	3.6 DSS	6.8 DSS
COc1cc(OC2CCN(C)CC2)ccc1Nc1ncc2c(n1)n(C1CCCC1)c(=O)n2C [AZ 3146]	0.7 DSS	2.7 DSS	4.7 DSS	8.7 DSS
CC(C)Oc1cc(Nc2nc(N[C@@H](C)c3ccc(F)cn3)ncc2Cl)n[nH]1 [AZ-23]	0 DSS	1 DSS	0 DSS	0 DSS
